One assay concerns IL1β, IL6 and IL8. As to the kind of experiment: IL1β, IL6 and IL8 secretion by LPS-activated mononuclear cells from venous blood. The format is cell-based, human. The following applies: compound at 1 μM.
For another assay, the target named is T1, PDE2 (Bos taurus, UniProt P14099).
T1 construct: PDE2 was prepared from bovine endothelial cells by the same methods; endogenous in cells; host or cells: bovine vascular endothelial cells, DEAE-Sephacel fraction
T1 sequence (P14099 1-921): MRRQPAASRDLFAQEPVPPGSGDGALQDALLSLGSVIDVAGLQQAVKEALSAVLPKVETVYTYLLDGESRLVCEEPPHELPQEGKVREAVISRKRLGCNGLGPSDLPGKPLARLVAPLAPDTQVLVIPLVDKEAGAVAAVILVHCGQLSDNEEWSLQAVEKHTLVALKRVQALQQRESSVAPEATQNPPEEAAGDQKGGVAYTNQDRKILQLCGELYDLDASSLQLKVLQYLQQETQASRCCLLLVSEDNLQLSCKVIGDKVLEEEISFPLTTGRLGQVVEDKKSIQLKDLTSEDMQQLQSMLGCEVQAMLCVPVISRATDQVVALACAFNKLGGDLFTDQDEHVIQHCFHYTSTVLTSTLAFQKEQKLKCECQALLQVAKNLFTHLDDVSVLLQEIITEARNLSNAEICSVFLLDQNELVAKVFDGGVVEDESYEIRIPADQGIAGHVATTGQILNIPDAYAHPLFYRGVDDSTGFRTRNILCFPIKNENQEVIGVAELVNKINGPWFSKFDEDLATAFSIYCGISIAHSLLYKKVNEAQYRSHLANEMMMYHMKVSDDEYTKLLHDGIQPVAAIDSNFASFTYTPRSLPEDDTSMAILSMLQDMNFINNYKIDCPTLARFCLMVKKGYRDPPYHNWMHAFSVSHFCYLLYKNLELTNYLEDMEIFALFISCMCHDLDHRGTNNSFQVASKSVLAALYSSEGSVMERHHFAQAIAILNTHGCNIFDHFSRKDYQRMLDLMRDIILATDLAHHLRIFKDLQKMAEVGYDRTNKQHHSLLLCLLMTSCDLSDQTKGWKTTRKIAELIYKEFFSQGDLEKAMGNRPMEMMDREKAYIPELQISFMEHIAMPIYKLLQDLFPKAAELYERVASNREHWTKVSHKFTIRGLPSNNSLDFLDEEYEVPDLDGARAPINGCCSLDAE
Description: Selectivity: inhibition of PDE2, radioenzymatic phosphodiesterase assay. As to conditions: Table 4 Selectivity. The format is biochemical, bovine. The procedure:
(§1) A 3 g segment of bovine aortic media cut into pieces with scissors was homogenized with an ultra-turrax then a potter glass/glass homogenizer in 7 volumes by weight of buffer A containing a protease inhibitor cocktail (20 mM Tris-HCl, 0.25 M saccharose, 2 mM magnesium acetate, 1 mM dithiothreitol, 5 mM EGTA, 2000 U/ml aprotinin, 10 mg/l leupeptin and 10 mg/l soya trypsic inhibitor). The homogenizate was centrifuged at 105,000 g for 1 hour. The supernatant was loaded on a DEAE-Sephacel column (15×1.6 cm) pre-equilibrated with buffer B (buffer A without the saccharose, EGTA and protease inhibitors). The column was washed until there was no detectable absorption at 280 nm, then eluted with a linear gradient of NaCl (0–0.5 M) in buffer B. 3-ml fractions were collected and enzyme activity was determined under the conditions described hereinafter to localize the different enzymes PDE1, PDE3, PDE4 and PDE5, which were aliquoted and frozen at −80° C. (Lugnier et al., Biochem. Phamacol., 35 (1986) 1746–1751). PDE2 was prepared from bovine endothelial cells by the same methods (Lugnier and Schini, Biochem. Pharmacol. 1990, 39; 75–84).
(§2) Cyclic nucleotide phosphodiesterase activity was determined by a radioenzymatic method using tritium-labelled cyclic GMP or AMP (1 μM) as substrate (Lugnier et al., 1986). ^3H-labelled adenosine or guanosine monophosphate formed by hydrolysis of the radiolabelled cyclic nucleotide was then converted to ^3H-labelled adenosine or guanosine in a second reaction with […] in excess. The nucleoside formed was separated from the nucleotides by anion exchange chromatography. Nucleoside radioactivity was determined by liquid scintillation counting. Enzymatic incubations were carried out under conditions allowing no more than 15% hydrolysis of the substrate; each point was performed in duplicate.
(§3) The activity of the compounds was evaluated on other phosphodiesterase isoforms, particularly basal state or calmodulin-activated PDE1 from vascular smooth muscle, basal state or cyclic GMP-activated PDE2 from vascular endothelial cells, PDE3 and PDE5 from vascular smooth muscle.
(§4) The results obtained are presented in Table 4 hereinafter and are expressed as the percentage inhibition of enzymatic activity produced by […] of the tested compound.

The next assay concerns the target PDE1. Description: Selectivity: inhibition of PDE1, radioenzymatic phosphodiesterase assay. The format is biochemical, bovine. The following applies: Table 4 Selectivity. The procedure:
as §1, §2, §3, §4

A further assay addresses T2, PDE5 (Bos taurus, UniProt Q28156).
T2 construct: localize the different enzymes PDE1, PDE3, PDE4 and PDE5, which were aliquoted and frozen; from tissue; host or cells: bovine aortic media (vascular smooth muscle), DEAE-Sephacel fraction
As to the kind of experiment: Selectivity: inhibition of PDE5, radioenzymatic phosphodiesterase assay. It is filed as biochemical, bovine. As to conditions: Table 4 Selectivity. The procedure: as §1, §2, §3, §4

The next assay concerns the target PDE4. As to the kind of experiment: Inhibition of PDE4, radioenzymatic phosphodiesterase assay. The format is biochemical, bovine. The method, boiled down: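 PDE4 partially purified from bovine aortic media by 105,000 g centrifugation and anion-exchange chromatography with an NaCl gradient. Activity measured radioenzymatically: product nucleoside separated from nucleotides by anion exchange and counted by liquid scintillation.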

For another assay, the system named is TNFα. As to the kind of experiment: TNFα production by LPS-activated mononuclear cells from venous blood (ELISA). It is filed as cell-based. The following applies: Homo sapiens; compound at 1 μM; 24 hours; LPS 5 pg/ml; read-out: inhibition of TNFα production. The procedure:
Compounds according to the invention were assessed for anti-inflammatory properties on mononuclear cells from venous blood of healthy donors (n=4), by a protocol approved by the Alsace No. 1 Ethics Committee. More specifically, the cells were incubated for 24 hours in 24-well plates in the presence of the test compound, after activation by Salmonella Abortis Equi lipopolysaccharide (LPS) (5 pg/ml) (cf. De Groote et al., Cytokine 4, 1992, 239). After incubation, TNFα concentrations were determined in the culture supernatant by an ELISA method (Antibody Solutions, Half Moon Bay, Calif., USA).

As to `COc1cc2c(cc1OC)C(c1cc3ccccc3s1)=NN(C)C(=O)C2` [IIIab, 1-(2-benzo[b]thienyl)-7,8-dimethoxy-3-methyl-3,5-dihydro-4H-2,3-benzodiazepin-4-one], the “IL1β, IL6 and IL8 secretion levels” value in the assay with IL1β, IL6 and IL8 was “not at all altered”. In addition, the IC50 on PDE2 came to 16 µM; at PDE1 it was 3.81 µM; against PDE5, 4.3 µM; against PDE4 (Table 1, formula (III), 1 μM cyclic AMP) it was 0.3 µM; at PDE4 (Table 4 Selectivity), 0.3 µM. In addition, the inhibition at 1 µM in the assay on TNFα was 100%.

(Values after patent US7250410B2, “Cyclic nucleotide phosphodiesterase inhibitors, preparation and uses thereof” (Via Pharmaceuticals, Inc., priority 2001, dated 2007).)
